Consider 20 compounds from ChEMBL document CHEMBL1131313, “1-[omega-(4-arylpiperazin-1-yl)alkyl]-3-diphenylmethylene-2,5- pyrrolidinediones as 5-HT1A receptor ligands: study of the steric requirements of the terminal amide fragment on 5-HT1A affinity/selectivity” (Bioorg Med Chem Lett, 1998).

In assay [1] the target is T1, Adrenergic receptor alpha-1 (Rattus norvegicus, UniProt P15823+P23944+P43140).
T1 sequence (P15823 whole entry): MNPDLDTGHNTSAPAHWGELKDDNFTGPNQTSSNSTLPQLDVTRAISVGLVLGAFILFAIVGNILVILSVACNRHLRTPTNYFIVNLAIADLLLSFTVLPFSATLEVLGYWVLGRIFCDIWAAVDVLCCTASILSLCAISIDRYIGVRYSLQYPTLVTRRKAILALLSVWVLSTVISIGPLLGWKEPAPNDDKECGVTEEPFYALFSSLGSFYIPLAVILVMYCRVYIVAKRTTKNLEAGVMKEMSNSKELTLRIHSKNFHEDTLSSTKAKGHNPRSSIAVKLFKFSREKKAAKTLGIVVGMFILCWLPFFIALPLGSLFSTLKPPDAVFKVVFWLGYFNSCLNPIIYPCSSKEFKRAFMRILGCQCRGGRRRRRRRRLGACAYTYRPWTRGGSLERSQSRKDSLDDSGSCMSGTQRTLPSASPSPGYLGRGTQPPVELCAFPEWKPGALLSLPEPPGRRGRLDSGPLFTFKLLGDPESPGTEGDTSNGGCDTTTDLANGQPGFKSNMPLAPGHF
T1 sequence (P23944 whole entry): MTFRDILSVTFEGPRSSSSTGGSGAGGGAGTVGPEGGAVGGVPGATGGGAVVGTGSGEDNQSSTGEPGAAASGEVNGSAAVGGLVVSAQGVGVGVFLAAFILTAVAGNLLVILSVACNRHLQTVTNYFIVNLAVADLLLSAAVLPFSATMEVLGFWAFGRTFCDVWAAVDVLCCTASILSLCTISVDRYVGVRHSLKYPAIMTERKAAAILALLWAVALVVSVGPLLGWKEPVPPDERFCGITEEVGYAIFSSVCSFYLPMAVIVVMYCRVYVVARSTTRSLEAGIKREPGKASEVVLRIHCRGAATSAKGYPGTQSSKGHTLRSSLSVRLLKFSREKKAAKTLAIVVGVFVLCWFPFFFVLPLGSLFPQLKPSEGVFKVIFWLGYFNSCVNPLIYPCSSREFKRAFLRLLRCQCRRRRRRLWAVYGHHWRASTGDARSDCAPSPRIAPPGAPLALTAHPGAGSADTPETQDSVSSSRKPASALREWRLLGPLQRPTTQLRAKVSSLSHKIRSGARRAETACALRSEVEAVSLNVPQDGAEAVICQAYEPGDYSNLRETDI
T1 sequence (P43140 whole entry): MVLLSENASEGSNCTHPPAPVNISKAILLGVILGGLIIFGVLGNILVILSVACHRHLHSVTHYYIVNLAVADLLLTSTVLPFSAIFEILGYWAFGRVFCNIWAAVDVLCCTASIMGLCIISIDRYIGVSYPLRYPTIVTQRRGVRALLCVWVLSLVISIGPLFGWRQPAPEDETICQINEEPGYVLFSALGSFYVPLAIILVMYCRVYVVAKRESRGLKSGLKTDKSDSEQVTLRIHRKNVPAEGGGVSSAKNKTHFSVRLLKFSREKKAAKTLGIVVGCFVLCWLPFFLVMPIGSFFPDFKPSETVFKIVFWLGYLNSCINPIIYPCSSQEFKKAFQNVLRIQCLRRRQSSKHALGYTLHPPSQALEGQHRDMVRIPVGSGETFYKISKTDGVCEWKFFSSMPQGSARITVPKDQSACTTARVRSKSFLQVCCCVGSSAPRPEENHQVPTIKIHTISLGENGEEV
Nature of the assay: In vitro binding affinity against Alpha-1 adrenergic receptor in rat cerebral cortex membrane using [3H]prazosin as radioligand. In kind it is cell membranes.

The next assay deals with D(2) dopamine receptor (Rattus norvegicus, UniProt P61169). The assay is described as follows: In vitro binding affinity against Dopamine receptor D2 in rat striatum membrane using [3H]raclopride as radioligand. In kind it is cell membranes.
Sequence of D(2) dopamine receptor (P61169 whole entry): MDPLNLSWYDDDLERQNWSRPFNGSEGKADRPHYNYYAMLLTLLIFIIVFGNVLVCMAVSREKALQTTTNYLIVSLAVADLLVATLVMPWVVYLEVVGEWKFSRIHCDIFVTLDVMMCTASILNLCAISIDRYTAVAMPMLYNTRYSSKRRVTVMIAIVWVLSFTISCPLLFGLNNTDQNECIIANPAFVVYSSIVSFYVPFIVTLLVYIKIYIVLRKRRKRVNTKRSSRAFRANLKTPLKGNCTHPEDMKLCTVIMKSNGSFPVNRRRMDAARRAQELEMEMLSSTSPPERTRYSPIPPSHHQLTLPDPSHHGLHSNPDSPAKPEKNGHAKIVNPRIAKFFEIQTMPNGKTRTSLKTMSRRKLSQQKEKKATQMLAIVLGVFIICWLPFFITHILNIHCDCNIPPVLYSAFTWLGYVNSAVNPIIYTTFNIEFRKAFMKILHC
For assay [2], the target named is T2, 5-hydroxytryptamine receptor 1A (Rattus norvegicus, UniProt P19327).
T2 sequence (P19327 whole entry): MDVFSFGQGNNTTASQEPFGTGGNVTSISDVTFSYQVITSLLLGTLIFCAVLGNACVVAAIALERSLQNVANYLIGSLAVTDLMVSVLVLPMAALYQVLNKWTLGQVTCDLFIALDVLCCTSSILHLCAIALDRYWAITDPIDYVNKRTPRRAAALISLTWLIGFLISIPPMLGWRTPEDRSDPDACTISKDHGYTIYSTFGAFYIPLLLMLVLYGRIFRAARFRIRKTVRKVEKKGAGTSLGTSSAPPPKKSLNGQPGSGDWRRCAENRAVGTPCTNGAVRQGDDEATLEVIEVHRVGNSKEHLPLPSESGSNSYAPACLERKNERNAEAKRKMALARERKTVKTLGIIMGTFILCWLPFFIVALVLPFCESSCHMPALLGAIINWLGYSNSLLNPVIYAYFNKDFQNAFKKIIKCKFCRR
The assay is described as follows: In vitro binding affinity against serotonin 5-HT1A receptor in rat cerebral cortex membrane using [3H]8-OH-DPAT as radioligand. The format is cell membranes.

Another assay is filed under the species Rattus norvegicus. The assay is described as follows: Compound was evaluated for its ability to affect adenylyl cyclase activity in rat hippocampus slice preparation; agonist. In kind it is functional. The conditions noted are these: filed as agonist.
The target in assay [3] is T1, Adrenergic receptor alpha-1. Nature of the assay: Antagonistic activity (pA2) at Alpha-1 adrenergic receptor in ring segments of rat thoracic aorta contracted by phenylephrine. In kind it is functional, tissue-based.

Some results are limits rather than exact numbers.

In the case of `O=C1CC(=C(c2ccccc2)c2ccccc2)C(=O)N1CCN1CCN(c2cccc(C(F)(F)F)c2)CC1`, the Ki (in assay [1]; at D(2) dopamine receptor; in assay [2]) was over 1000 nM throughout.

Turning to `O=C1CC(=C(c2ccccc2)c2ccccc2)C(=O)N1CN1CCN(c2cccc(Cl)c2)CC1`, the Ki in assay [1] was 392 nM; on D(2) dopamine receptor, over 1000 nM; in assay [2] it was 49.4 nM.

Regarding `COc1ccccc1N1CCN(CN2C(=O)CC(=C(c3ccccc3)c3ccccc3)C2=O)CC1`, the inhibition constant (Ki) in assay [1] is over 1000 nM; on D(2) dopamine receptor it was over 1000 nM; in assay [2] it was 93.8 nM.

In the case of `O=C1CC(=C(c2ccccc2)c2ccccc2)C(=O)N1CCCCN1CCN(c2ccc(F)cc2)CC1`, the Ki in assay [1] came to 51.8 nM; on D(2) dopamine receptor, 351 nM; in assay [2], 3.3 nM. Besides, the Activity entry in the assay listed under Rattus norvegicus was “Agonist”.

For the compound `O=C1CC(=C(c2ccccc2)c2ccccc2)C(=O)N1CCCCN1CCN(c2cccc(C(F)(F)F)c2)CC1`, the Ki in assay [1] turned out to be 60.5 nM; at D(2) dopamine receptor it was 689 nM; in assay [2] it was 15.8 nM.

In the case of `O=C1CC(=C(c2ccccc2)c2ccccc2)C(=O)N1CCCN1CCN(c2cccc(Cl)c2)CC1`, the Ki in assay [1] turned out to be 39.2 nM; at D(2) dopamine receptor, 801 nM; in assay [2], 127 nM.

Regarding `O=C1CC(=C(c2ccccc2)c2ccccc2)C(=O)N1CN1CCN(c2ccccc2)CC1`, the figures for the Ki (in assay [1]; on D(2) dopamine receptor; in assay [2]) were over 1000 nM, over 1000 nM and 98 nM, respectively.

On to `COc1ccccc1N1CCN(CCCN2C(=O)CC(=C(c3ccccc3)c3ccccc3)C2=O)CC1`, for which the Ki is 8.1 nM in assay [1], 156 nM on D(2) dopamine receptor and 665 nM in assay [2].

For the compound `O=C1CC(=C(c2ccccc2)c2ccccc2)C(=O)N1CN1CCN(c2cccc(C(F)(F)F)c2)CC1`, the figures for the Ki (in assay [1]; at D(2) dopamine receptor; in assay [2]) were over 1000 nM, over 1000 nM and 59.6 nM, respectively. Further, in the assay filed under Rattus norvegicus, the Activity entry is “Agonist”.

Consider `COc1ccccc1N1CCN(CCN2C(=O)CC(=C(c3ccccc3)c3ccccc3)C2=O)CC1`, for which the Ki worked out at 71.5 nM in assay [1], 167 nM on D(2) dopamine receptor and 286 nM in assay [2].

As to `O=C1CC(=C(c2ccccc2)c2ccccc2)C(=O)N1CCN1CCN(c2cccc(Cl)c2)CC1`, the Ki (in assay [1]; at D(2) dopamine receptor; in assay [2]) was over 1000 nM throughout.

Consider `O=C1CC(=C(c2ccccc2)c2ccccc2)C(=O)N1CCCCN1CCN(c2ccccc2)CC1`, for which the Ki in assay [1] is 6.4 nM; at D(2) dopamine receptor, over 1000 nM; in assay [2], 125 nM.

For `O=C1CC(=C(c2ccccc2)c2ccccc2)C(=O)N1CCCN1CCN(c2ccccc2)CC1`, the Ki is 5.7 nM in assay [1], over 1000 nM at D(2) dopamine receptor and over 1000 nM in assay [2]. In assay [3], this compound returned a pA2 of 7.79.

For the compound `O=C1CC(=C(c2ccccc2)c2ccccc2)C(=O)N1CN1CCN(c2ccc(F)cc2)CC1`, the Ki in assay [1] was 746 nM; at D(2) dopamine receptor, over 1000 nM; in assay [2], over 1000 nM.

As to `COc1ccccc1N1CCN(CCCCN2C(=O)CC(=C(c3ccccc3)c3ccccc3)C2=O)CC1`, the Ki in assay [1] was 14.4 nM; on D(2) dopamine receptor, over 1000 nM; in assay [2], 13.4 nM.

For `O=C1CC(=C(c2ccccc2)c2ccccc2)C(=O)N1CCCN1CCN(c2cccc(C(F)(F)F)c2)CC1`, the results for the Ki (in assay [1]; at D(2) dopamine receptor; in assay [2]) were 62.7 nM, over 1000 nM and over 1000 nM, respectively.

With `O=C1CC(=C(c2ccccc2)c2ccccc2)C(=O)N1CCCCN1CCN(c2cccc(Cl)c2)CC1`, the Ki in assay [1] came out at 16.4 nM; on D(2) dopamine receptor, 367 nM; in assay [2], 39.3 nM.

`O=C1CC(=C(c2ccccc2)c2ccccc2)C(=O)N1CCCN1CCN(c2ccc(F)cc2)CC1`: the values for the Ki (in assay [1]; at D(2) dopamine receptor; in assay [2]) were 8.3 nM, over 1000 nM and over 1000 nM, respectively. In assay [3], the pA2 is 8.63.

Take `O=C1CC(=C(c2ccccc2)c2ccccc2)C(=O)N1CCN1CCN(c2ccc(F)cc2)CC1`: the figures for the Ki (in assay [1]; on D(2) dopamine receptor; in assay [2]) were 529 nM, over 1000 nM and over 1000 nM, respectively.

As to `O=C1CC(=C(c2ccccc2)c2ccccc2)C(=O)N1CCN1CCN(c2ccccc2)CC1`, the Ki was 214 nM in assay [1], over 1000 nM at D(2) dopamine receptor and over 1000 nM in assay [2].

The Ki is a dissociation constant, usually derived from enzyme kinetics or from competition with a known ligand. Read a low Ki as a stronger hold on the target. Usually pA2 stands for the negative logarithm of the molar antagonist concentration that doubles the agonist concentration needed for the same response. Low readings indicate lower antagonist potency, high ones higher antagonist potency.
